{"source": "ChEMBL document CHEMBL3603805", "about": "“Novel metal chelating molecules with anticancer activity. Striking effect of the imidazole substitution of the histidine-pyridine-histidine system” (Bioorg Med Chem, 2015)", "key": {"U-87MG ATCC": {"test_system": "U-87MG ATCC", "assay": "Cytotoxicity against human U87 cells at 10 uM after 24 hrs by MTT assay", "format": "functional, cell-based"}, "ASPC1": {"test_system": "ASPC1", "assay": "Cytotoxicity against human AsPC1 cells at 10 uM after 24 hrs by MTT assay", "format": "functional, cell-based"}, "U-251": {"test_system": "U-251", "assay": "Cytotoxicity against human U251 cells at 10 uM after 24 hrs by MTT assay", "format": "functional, cell-based"}, "Escherichia coli": {"test_system": "Escherichia coli", "assay": "Induction of DNA cleavage in Escherichia coli supercoiled pUC19 DNA assessed as formation of nicked form II DNA using FeSO4 at 30 uM after 1.5 hrs by agarose-gel electrophoresis"}, "[1]": {"assay": "Stability of the compound under physiological condition", "format": "physicochemical"}}, "note": "Calls of active or inactive are those of the source. The calls are words filed in the database; no cut-off is given here.", "data": [{"smiles": "COC(=O)[C@H](Cc1cn(C(c2ccccc2)(c2ccccc2)c2ccccc2)cn1)NCc1cc(N(C)C)cc(CN[C@@H](Cc2cn(C(c3ccccc3)(c3ccccc3)c3ccccc3)cn2)C(=O)OC)n1", "values": [{"measurement": "Activity", "setting": "U-87MG ATCC", "value": "Active"}, {"measurement": "Activity", "setting": "ASPC1", "value": "Active"}, {"measurement": "Activity", "setting": "U-251", "value": "Active"}, {"measurement": "Activity", "setting": "Escherichia coli", "value": "Active"}, {"measurement": "Stability", "setting": "[1]", "value": "Stable"}]}, {"smiles": "COC(=O)[C@H](Cc1cn(C)cn1)NCc1cc(N(C)C)cc(CN[C@@H](Cc2cn(C)cn2)C(=O)OC)n1", "values": [{"measurement": "Activity", "setting": "U-87MG ATCC", "value": "inactive"}, {"measurement": "Activity", "setting": "ASPC1", "value": "inactive"}, {"measurement": "Activity", "setting": "U-251", "value": "inactive"}, {"measurement": "Activity", "setting": "Escherichia coli", "value": "Active"}]}, {"smiles": "COC(=O)[C@H](Cc1cn(Cc2ccccc2)cn1)NCc1cc(N(C)C)cc(CN[C@@H](Cc2cn(Cc3ccccc3)cn2)C(=O)OC)n1", "values": [{"measurement": "Activity", "setting": "U-87MG ATCC", "value": "inactive"}, {"measurement": "Activity", "setting": "ASPC1", "value": "inactive"}, {"measurement": "Activity", "setting": "U-251", "value": "inactive"}, {"measurement": "Activity", "setting": "Escherichia coli", "value": "Active"}]}, {"smiles": "COC(=O)[C@H](Cc1c[nH]cn1)NCc1cc(N(C)C)cc(CN[C@@H](Cc2cn(C)cn2)C(=O)OC)n1", "values": [{"measurement": "Activity", "setting": "U-87MG ATCC", "value": "inactive"}, {"measurement": "Activity", "setting": "ASPC1", "value": "inactive"}, {"measurement": "Activity", "setting": "U-251", "value": "inactive"}, {"measurement": "Activity", "setting": "Escherichia coli", "value": "Active"}]}, {"smiles": "COC(=O)[C@H](Cc1c[nH]cn1)NCc1cc(N(C)C)cc(CN[C@@H](Cc2cn(C(c3ccccc3)(c3ccccc3)c3ccccc3)cn2)C(=O)OC)n1", "values": [{"measurement": "Activity", "setting": "U-87MG ATCC", "value": "Active"}, {"measurement": "Activity", "setting": "ASPC1", "value": "Active"}, {"measurement": "Activity", "setting": "U-251", "value": "Active"}, {"measurement": "Activity", "setting": "Escherichia coli", "value": "Active"}, {"measurement": "Stability", "setting": "[1]", "value": "Stable"}]}, {"smiles": "COC(=O)[C@H](Cc1c[nH]cn1)NCc1cc(N(C)C)cc(CN[C@@H](Cc2c[nH]cn2)C(=O)OC)n1", "values": [{"measurement": "Activity", "setting": "U-87MG ATCC", "value": "inactive"}, {"measurement": "Activity", "setting": "ASPC1", "value": "inactive"}, {"measurement": "Activity", "setting": "U-251", "value": "inactive"}, {"measurement": "Activity", "setting": "Escherichia coli", "value": "Active"}]}]}
